EC50 and Emax data for twelve compounds are collected here from US10077237B2 (Sanofi, priority 2013, dated 2018).

The target of the assay is T1, recombinant human AMPK complex, containing α2β1γ2 (Homo sapiens, UniProt P54646+Q9Y478).
T1 construct: hsAMPKα2-552-His, hsAMPKβ1-2-270 and hsAMPKγ-2-569 respectively; hsAMPKβ1-2-270; hsAMPKγ-2-569; His (C); made in house; host or cells: Spodoptera frugiperda Sf21 (baculovirus)
The experiment in a line: AMPK in vitro activation assay (HTRF). The class given is biochemical. As to conditions: for EC50: HTRF, recombinant human α2β1γ2 AMPK, 200 μM ATP, biotinylated ACC-CREBp peptide, repeat determinations on separate lines; for Emax: potentiation of AMPK activity as percent over the basal signal (without compound). A digest of the protocol: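 Sf21-expressed, Ni-NTA partially purified α2β1γ2 complex preincubated 30 min at room temperature with compound (0.5% DMSO) in HEPES pH 7.0, MgCl2, DTT. Reaction was started with a solution holding 200 μM ATP and 2 or 0.08 μM biotinylated ACC-CREBp peptide, run 45 min at 37° C, then read by HTRF with anti-pS133-CREB; EC50 from percent over basal.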
(In general: TR-FRET usually uses a lanthanide donor and a delayed reading to cut background.)

Structures are written as SMILES. “And” between values parts separate entries of the source, which are not always exact repeats. Identical values can stand only once. Counter-ions that a name gives are not always drawn.

T1 sequence (P54646 2-552): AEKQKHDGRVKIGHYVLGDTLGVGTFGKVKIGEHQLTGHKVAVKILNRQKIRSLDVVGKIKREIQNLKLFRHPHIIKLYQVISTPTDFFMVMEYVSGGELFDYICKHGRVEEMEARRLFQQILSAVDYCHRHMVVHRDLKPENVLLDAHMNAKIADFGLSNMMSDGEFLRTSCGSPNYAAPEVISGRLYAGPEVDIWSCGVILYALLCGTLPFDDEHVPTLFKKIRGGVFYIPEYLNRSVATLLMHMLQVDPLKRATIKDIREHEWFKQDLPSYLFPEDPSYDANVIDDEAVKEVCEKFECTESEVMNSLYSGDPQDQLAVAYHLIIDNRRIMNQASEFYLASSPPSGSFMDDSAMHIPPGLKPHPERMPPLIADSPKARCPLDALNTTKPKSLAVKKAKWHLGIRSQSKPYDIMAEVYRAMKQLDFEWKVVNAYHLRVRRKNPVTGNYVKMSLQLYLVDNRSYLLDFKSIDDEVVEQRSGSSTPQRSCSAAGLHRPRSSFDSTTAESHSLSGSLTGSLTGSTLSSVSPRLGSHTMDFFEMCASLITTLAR
T1 sequence (Q9Y478 2-270): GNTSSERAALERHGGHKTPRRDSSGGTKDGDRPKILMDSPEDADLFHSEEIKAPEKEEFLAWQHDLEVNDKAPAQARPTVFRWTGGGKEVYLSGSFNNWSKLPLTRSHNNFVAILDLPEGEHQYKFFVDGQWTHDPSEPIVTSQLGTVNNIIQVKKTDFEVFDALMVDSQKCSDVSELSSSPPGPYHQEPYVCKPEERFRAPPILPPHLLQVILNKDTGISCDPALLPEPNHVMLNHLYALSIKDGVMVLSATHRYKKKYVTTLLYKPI
T1 sequence (Q9UGJ0 2-569 partner limits assumed): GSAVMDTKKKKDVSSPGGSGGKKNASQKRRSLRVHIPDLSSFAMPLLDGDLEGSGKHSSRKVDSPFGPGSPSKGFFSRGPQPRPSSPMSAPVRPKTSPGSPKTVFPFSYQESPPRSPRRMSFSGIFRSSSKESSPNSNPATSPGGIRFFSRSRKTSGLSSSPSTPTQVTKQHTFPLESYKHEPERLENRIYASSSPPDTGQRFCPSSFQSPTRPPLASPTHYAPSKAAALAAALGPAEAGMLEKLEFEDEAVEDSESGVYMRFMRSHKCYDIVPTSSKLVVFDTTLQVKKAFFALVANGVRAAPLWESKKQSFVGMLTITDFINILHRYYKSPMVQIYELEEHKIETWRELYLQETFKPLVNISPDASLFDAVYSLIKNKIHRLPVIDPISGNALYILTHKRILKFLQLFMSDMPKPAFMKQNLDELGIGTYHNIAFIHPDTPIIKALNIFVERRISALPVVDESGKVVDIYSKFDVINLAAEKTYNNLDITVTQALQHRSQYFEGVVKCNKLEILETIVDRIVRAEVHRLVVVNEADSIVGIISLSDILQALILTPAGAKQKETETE

As usually defined, the EC50 is the concentration that produces a half-maximal response. For the compound `O=C1Nc2cc(Cl)c(-c3ccc(N4CCOCC4)cc3)cc2C1=C(O)c1cc(C2CC2)no1` [Compound 87, 6-chloro-3-[(3-cyclopropylisoxazol-5-yl)hydroxy-methylene]-5-(4-morpholinophenyl)indolin-2-one], the EC50 is 0.5 nM and 0.6 nM.
On the same count and under the same terms, under `COc1ccc(C(O)=C2C(=O)Nc3cc(Cl)c(-c4ccc(C5(CO)CC5)cc4)cc32)cc1F` [Compound 88, 6-chloro-3-[(3-fluoro-4-methoxy-phenyl)hydroxy-methylene]-5-[4-[1-(hydroxymethyl)cyclopropyl]phenyl]indolin-2-one] stands 0.6 nM and 0.4 nM.
One may read the Emax as the size of the effect at its maximum, as opposed to the concentration needed. With `COc1cc(C(O)=C2C(=O)Nc3cc(Cl)c(-c4ccc(C5(O)CCOCC5)cc4)cc32)on1` [Compound 89, 6-chloro-3-[hydroxy-(3-methoxyisoxazol-5-yl)methylene]-5-[4-(4-hydroxytetrahydropyran-4-yl)phenyl]indolin-2-one], the EC50 turned out to be 7 nM and the Emax worked out at 203%.
`COc1cccc(-c2ccc(-c3cc4c(cc3Cl)NC(=O)C4=C(O)c3cc(OCCN4CCOCC4)no3)cc2)c1O` [Compound 90, 6-chloro-5-[4-(2-hydroxy-3-methoxy-phenyl)phenyl]-3-[hydroxy-[3-(2-morpholinoethoxy)isoxazol-5-yl]methylene]indolin-2-one]: the EC50 was 0.1 nM and 0.2 nM.
Take `Cc1cc(C(O)=C2C(=O)Nc3cc(Cl)c(-c4ccc(OCCCO)cc4)cc32)on1` [Compound 91, 6-chloro-3-[hydroxy-(3-methylisoxazol-5-yl)methylene]-5-[4-(3-hydroxypropoxy)phenyl]indolin-2-one]: the EC50 was 4 nM and the Emax turned out to be 185%.
The corresponding values for `COc1cc(C(O)=C2C(=O)Nc3cc(F)c(-c4ccc(-c5cccc(OC)c5O)cc4)c(F)c32)on1` [Compound 92, 4,6-difluoro-3-[hydroxy-(3-methoxyisoxazol-5-yl)methylene]-5-[4-(2-hydroxy-3-methoxy-phenyl)phenyl]indolin-2-one] are 0.3 nM and 172%.
On to `CN1CCN(c2cccc(C(O)=C3C(=O)Nc4cc(Cl)c(-c5ccc(N6CCOCC6)cc5)cc43)c2)CC1` [Compound 93, 6-chloro-3-[hydroxy-[3-(4-methylpiperazin-1-yl)phenyl]methylene]-5-(4-morpholinophenyl)indolin-2-one hydrochloride], for which the concentration for a half-maximal effect (EC50) came to 58 nM and the Emax amounted to 186%.
`O=C1Nc2cc(Cl)c(-c3ccc(N4CCOCC4)cc3)cc2C1=C(O)c1cccc(N2CCOCC2)c1` [Compound 94, 6-chloro-3-[hydroxy-(3-morpholinophenyl)methylene]-5-(4-morpholinophenyl)indolin-2-one]: the EC50 is 14 nM and the Emax is 150%.
The corresponding values for `O=C1Nc2cc(Cl)c(-c3ccc(N4CCOCC4)cc3)cc2C1=C(O)c1ccc(OC(F)(F)F)c(F)c1` [Compound 95, 6-chloro-3-[[3-fluoro-4-(trifluoromethoxy)phenyl]-hydroxy-methylene]-5-(4-morpholinophenyl)indolin-2-one] are 396 nM and 159%.
On to `COc1cc(C(O)=C2C(=O)Nc3cc(Cl)c(-c4ccc(C5(CO)CC5)c(F)c4)cc32)on1` [Compound 96, 6-chloro-5-[3-fluoro-4-[1-(hydroxymethyl)cyclopropyl]phenyl]-3-[hydroxy-(3-methoxyisoxazol-5-yl)methylene]indolin-2-one], for which the EC50 was 0.3 nM and 0.2 nM.
For the compound `COc1c(F)cc(C(O)=C2C(=O)Nc3cc(Cl)c(-c4ccc(N5CCOCC5)cc4)cc32)cc1Cl` [Compound 97, 6-chloro-3-[(3-chloro-5-fluoro-4-methoxy-phenyl)hydroxy-methylene]-5-(4-morpholinophenyl)indolin-2-one], the EC50 was found to be 41 nM and the Emax amounted to 185%.
The corresponding values for `COc1ccc(C(O)=C2C(=O)Nc3cc(Cl)c(-c4ccc(N5CCOCC5)cc4)cc32)c(F)c1F` [Compound 98, 6-chloro-3-[(2,3-difluoro-4-methoxy-phenyl)hydroxy-methylene]-5-(4-morpholinophenyl)indolin-2-one] are 2 nM and 191%.
